In series [1] the target is Sodium-dependent serotonin transporter (Rattus norvegicus) (UniProt P31652). The series can be described thus: Inhibition of [3H]serotonin reuptake in rat brain synaptosomes SERT at 10 uM after 15 mins by TopCount scintillation counting method relative to control. It counts as subcellular.
Series [2] deals with Sodium-dependent serotonin transporter (Rattus norvegicus, UniProt P31652). The series can be described thus: Inhibition of [3H]serotonin reuptake in rat brain synaptosomes SERT after 15 mins by TopCount scintillation counting method. It counts as subcellular.
Series [3] has as its target T1, 5-hydroxytryptamine receptor 1A (Homo sapiens, UniProt P08908).
T1 sequence (P08908 whole entry): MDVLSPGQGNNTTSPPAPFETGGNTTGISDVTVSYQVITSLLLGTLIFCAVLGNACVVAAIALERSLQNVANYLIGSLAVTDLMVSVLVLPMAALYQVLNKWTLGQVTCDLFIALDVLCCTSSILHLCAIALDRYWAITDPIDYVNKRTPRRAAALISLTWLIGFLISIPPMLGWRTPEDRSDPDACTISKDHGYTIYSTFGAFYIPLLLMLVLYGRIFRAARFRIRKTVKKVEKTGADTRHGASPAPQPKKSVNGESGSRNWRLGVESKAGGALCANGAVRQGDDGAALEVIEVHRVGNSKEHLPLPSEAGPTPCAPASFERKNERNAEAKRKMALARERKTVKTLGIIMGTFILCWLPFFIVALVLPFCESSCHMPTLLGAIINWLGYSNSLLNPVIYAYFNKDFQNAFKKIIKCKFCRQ
The series can be described thus: Displacement of [3H]8-OH-DPAT from recombinant human 5-HT1A receptor expressed in HEK293 cell membranes after 60 mins by TopCount scintillation counting method.

The target in series [4] is T2, 5-hydroxytryptamine receptor 7 (Homo sapiens, UniProt P34969). The series can be described thus: Displacement of [3H]LSD from recombinant human 5-HT7 receptor expressed in CHO cell membranes at 10 uM after 120 mins by TopCount scintillation counting method relative to control. (Loss of bound radioactivity is the signal in a displacement assay; it reports binding, not function.)

Series [5] has as its target T2, 5-hydroxytryptamine receptor 7. The series can be described thus: Displacement of [3H]LSD from recombinant human 5-HT7 receptor expressed in CHO cell membranes after 120 mins by TopCount scintillation counting method.
Series [6] concerns Mus musculus. The series can be described thus: Antidepressant-like activity in mouse assessed as reduction in immobility time at 40 mg/kg/day, po once daily for 7 days measured for last 4 mins of 6 mins test at 1 hr post last dose by forced swim test relative to control. In kind it is functional. Set-up: scale not given: the % may be the effect or the level left.
In series [7] the test system is Mus musculus. The series can be described thus: Antidepressant-like activity in po dosed mouse assessed as reduction in immobility time administered once daily for 7 days measured for 5 mins at 1 hr post last dose by tail suspension test. In kind it is functional, organism-based.
In series [8] the test system is Mus musculus. The series can be described thus: Antidepressant-like activity in mouse assessed as reduction in immobility time at 40 mg/kg/day, po administered once daily for 7 days measured for 5 mins at 1 hr post last dose by tail suspension test relative to control. It counts as functional. Set-up: scale not given: the % may be the effect or the level left.
Series [9] in a line: AUC (0 to t) in Sprague-Dawley rat at 2 mg/kg, po administered as single dose by LC-MS/MS analysis. It counts as ADME, organism-based. As to conditions: in vivo.
Series [10] can be described thus: Apparent volume of distribution during terminal phase in Sprague-Dawley rat at 2 mg/kg, po administered as single dose by LC-MS/MS analysis. It counts as ADME, organism-based. As to conditions: in vivo, read-out: Vz/F.
Series [11] is described as follows: Apparent clearance during terminal phase in Sprague-Dawley rat at 2 mg/kg, po administered as single dose by LC-MS/MS analysis. In kind it is ADME, organism-based. Conditions: in vivo, read-out: CLz/F (converted).
A short description of series [12]: Apparent terminal half life in Sprague-Dawley rat at 2 mg/kg, po administered as single dose by LC-MS/MS analysis. As to conditions: in vivo, read-out: betat1/2(app) (converted). In kind it is ADME, organism-based.
The nature of series [13]: Tmax in Sprague-Dawley rat at 2 mg/kg, po administered as single dose by LC-MS/MS analysis. It counts as ADME, organism-based. Conditions: in vivo.
Series [14] is described as follows: Cmax in Sprague-Dawley rat at 2 mg/kg, po administered as single dose by LC-MS/MS analysis. In kind it is ADME, organism-based. Set-up: dose 2 mg/kg, route oral. As to conditions: in vivo.
A short description of series [15]: AUC (0 to t) in Sprague-Dawley rat at 0.5 mg/kg, iv administered as single dose by LC-MS/MS analysis. In kind it is ADME, organism-based. As to conditions: in vivo.
Series [16] can be described thus: MRT (0 to t) in Sprague-Dawley rat at 0.5 mg/kg, iv administered as single dose by LC-MS/MS analysis. It counts as ADME, organism-based. Conditions: in vivo.
Series [17] can be described thus: Apparent terminal half life in Sprague-Dawley rat at 0.5 mg/kg, iv administered as single dose by LC-MS/MS analysis. It counts as ADME, organism-based. As to conditions: in vivo, read-out: betat1/2(app) (converted).
Series [18] is described as follows: Tmax in Sprague-Dawley rat at 0.5 mg/kg, iv administered as single dose by LC-MS/MS analysis. It counts as ADME, organism-based. Conditions: in vivo.
Series [19] can be described thus: Plasma concentration in Sprague-Dawley rat at 2 mg/kg, po administered as single dose measured after 15 mins by LC-MS/MS analysis. In kind it is ADME, organism-based.
Series [20] is described as follows: Plasma concentration in Sprague-Dawley rat at 2 mg/kg, po administered as single dose measured after 30 mins by LC-MS/MS analysis. In kind it is ADME, organism-based.
A short description of series [21]: Plasma concentration in Sprague-Dawley rat at 2 mg/kg, po administered as single dose measured after 1 hr by LC-MS/MS analysis. In kind it is ADME, organism-based.
A short description of series [22]: Plasma concentration in Sprague-Dawley rat at 2 mg/kg, po administered as single dose measured after 6 hrs by LC-MS/MS analysis. In kind it is ADME, organism-based.
The nature of series [23]: Plasma concentration in Sprague-Dawley rat at 0.5 mg/kg, iv administered as single dose measured after 4 hrs by LC-MS/MS analysis. It counts as ADME, organism-based.
Series [24] in a line: Plasma concentration in Sprague-Dawley rat at 0.5 mg/kg, iv administered as single dose measured after 6 hrs by LC-MS/MS analysis. It counts as ADME, organism-based.

SMILES strings stand for the structures.

T2 sequence (P34969 whole entry): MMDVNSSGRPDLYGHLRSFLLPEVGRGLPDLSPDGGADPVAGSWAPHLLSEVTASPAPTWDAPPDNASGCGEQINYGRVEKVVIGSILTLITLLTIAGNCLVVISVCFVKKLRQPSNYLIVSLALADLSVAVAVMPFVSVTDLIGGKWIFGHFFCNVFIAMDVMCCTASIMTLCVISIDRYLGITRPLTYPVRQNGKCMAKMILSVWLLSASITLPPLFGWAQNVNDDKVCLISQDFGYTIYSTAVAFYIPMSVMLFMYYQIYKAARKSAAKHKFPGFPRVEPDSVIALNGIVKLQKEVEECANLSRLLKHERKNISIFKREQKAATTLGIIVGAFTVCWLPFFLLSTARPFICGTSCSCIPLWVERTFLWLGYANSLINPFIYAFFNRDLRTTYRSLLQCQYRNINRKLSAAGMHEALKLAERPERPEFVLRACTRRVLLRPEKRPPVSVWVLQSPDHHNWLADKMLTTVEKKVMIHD
Chain of Sodium-dependent serotonin transporter (Rattus norvegicus) (P31652 whole entry): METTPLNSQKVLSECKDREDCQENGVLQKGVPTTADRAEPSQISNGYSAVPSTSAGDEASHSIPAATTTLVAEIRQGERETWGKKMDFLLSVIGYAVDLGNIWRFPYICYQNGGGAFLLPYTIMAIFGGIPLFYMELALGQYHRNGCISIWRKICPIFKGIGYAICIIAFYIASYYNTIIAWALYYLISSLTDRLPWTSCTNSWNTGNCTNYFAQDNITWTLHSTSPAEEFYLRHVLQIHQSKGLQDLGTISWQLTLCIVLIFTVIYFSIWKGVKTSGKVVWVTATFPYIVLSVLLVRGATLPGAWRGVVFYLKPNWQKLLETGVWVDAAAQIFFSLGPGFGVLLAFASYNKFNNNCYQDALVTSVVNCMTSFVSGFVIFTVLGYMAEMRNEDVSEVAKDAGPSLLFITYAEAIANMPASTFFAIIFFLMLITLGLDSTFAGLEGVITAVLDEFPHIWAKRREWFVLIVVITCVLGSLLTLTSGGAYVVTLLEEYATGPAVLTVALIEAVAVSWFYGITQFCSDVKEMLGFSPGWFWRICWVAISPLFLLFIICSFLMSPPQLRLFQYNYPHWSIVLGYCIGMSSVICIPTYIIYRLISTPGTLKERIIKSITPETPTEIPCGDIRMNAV
Chain of Sodium-dependent serotonin transporter (P31652 whole entry): as above

As for `Fc1ccc(N2CCN(CCCc3c[nH]c4ccc(F)cc34)CC2)c(-c2ccccc2)c1`, the inhibition in [1] and in series [4] was over 90% each time. Besides, half-maximal inhibition in [2] (IC50) required 25 nM. Besides, the Ki (commonly the equilibrium dissociation constant of an inhibitor or competing ligand from its target) in series [3] came to 28 nM; in series [5], 3.3 nM. For the same compound, the values for the Activity in series [6], in series [7] and in series [8] were 54%, “Dose-dependent effect” and 39%, respectively. Further, the exposure AUC(0-t) (in general, the area under the concentration-time curve up to a stated or last time point) in series [9] was determined as 536 ng·h/mL; in series [15], 287 ng·h/mL. Further, the Vd/F in series [10] was 17.1 L/kg. In [11], the CL/F was 40 mL/min/kg. For the same compound, the half-life in series [12] is 6.1 h; in series [17] it was 3.3 h. The Tmax (commonly the time from dosing to the highest level) in [13] was 1.7 h; in series [18] it was 6 min. Also, the Cmax (usually the peak of the concentration-time curve) in series [14] was found to be 86.7 ng/mL. For the same compound, in [16], the MRT last (commonly a mean duration of stay, worked out from the concentration-time curve) was determined as 1.9 h. The concentration at […] in series [19] worked out at 20.4 ng/mL. Moreover, the concentration at 0.5 h in series [20] was 58.3 ng/mL. Moreover, in [21], the concentration at 1 h was 72.8 ng/mL. The values for the concentration at 6 h in series [22] and in [24] were 64.7 ng/mL and 12.4 ng/mL, respectively. In addition, in series [23], the concentration at 4 h is 20.7 ng/mL.
